Results on 23 compounds are retold here after PubChem BioAssay (NCI).

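Assay format: 96-well plates, 48-hour exposure. TGI: concentration producing complete growth inhibition.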

Some test systems named below: HCT-116 colon; HOP-92 NSCLC; K-562 leukemia; MALME-3M melanoma; RPMI-8226 leukemia; SK-MEL-5 melanoma; SK-OV-3 ovarian; SN12C renal; UO-31 renal.
Assay in all cases: NCI anticancer screen, dose series, 48 h

With `CC1=C2C(c3ccccc3)(c3ccccc3)C3C=CC2(C=N3)N(C(=O)NC2CCCCC2)C1=O` (stereo not drawn), the TGI in the test on HCT-116 colon amounted to 29.4 µM; in the test with HOP-92 NSCLC it was 27.4 µM; with K-562 leukemia it was 34.6 µM; with MALME-3M melanoma, 31.6 µM; with RPMI-8226 leukemia it was 37.8 µM; in the test with SK-MEL-5 melanoma, 30.5 µM. Further, the results for the TGI with SK-OV-3 ovarian, with SN12C renal and in the test with UO-31 renal were 44.3 µM, 31.7 µM and 27.3 µM, respectively.

As for `Cc1cc(C)nc(NS(=O)(=O)c2ccc(NC(=O)c3cccc4cc5ccccc5nc34)cc2)n1`, the TGI is 32.1 µM with HCT-116 colon; more than 100 µM in the test with K-562 leukemia; 56.7 µM in the test with MALME-3M melanoma; 85.7 µM with RPMI-8226 leukemia; more than 100 µM in the test on SK-MEL-5 melanoma; more than 100 µM with SK-OV-3 ovarian. For the same compound, the TGI in the test with SN12C renal and in the test on UO-31 renal was more than 100 µM in each case.

Regarding `COc1cc(Br)c(CC2=NCCc3cc(OC)c(OC)cc32)cc1OC`, the TGI in the test on HCT-116 colon is more than 100 µM; in the test with HOP-92 NSCLC, 60.3 µM; in the test on K-562 leukemia it was more than 100 µM; in the test with MALME-3M melanoma, more than 100 µM; in the test on RPMI-8226 leukemia, 73 µM; in the test on SK-MEL-5 melanoma, 36 µM. Further, the TGI was more than 100 µM in the test with SK-OV-3 ovarian, more than 100 µM in the test with SN12C renal and 95.1 µM with UO-31 renal.

As for `O=[N+]([O-])c1ccccc1C1N2CCCCC2[C@@H]2c3[nH]c4ccccc4c3CCN12` (stereo partly drawn), the TGI in the test with HOP-92 NSCLC came out at 29.2 µM; in the test on K-562 leukemia, 14 µM; with RPMI-8226 leukemia it was 61.3 µM; in the test on SK-MEL-5 melanoma, 26.2 µM; with SK-OV-3 ovarian, 54.3 µM; in the test on SN12C renal, 26.6 µM. Besides, the TGI in the test with UO-31 renal was 23.5 µM.

`Cc1ccc(Nc2ccc(Nc3ccc(C)cc3)c3c2C(=O)c2c(O)ccc(O)c2C3=O)cc1`: the TGI with HCT-116 colon, in the test with HOP-92 NSCLC, with K-562 leukemia, in the test with MALME-3M melanoma, in the test on RPMI-8226 leukemia and with SK-MEL-5 melanoma was more than 100 µM each time. Also, the TGI with SK-OV-3 ovarian, in the test with SN12C renal and in the test with UO-31 renal was more than 100 µM throughout.

For `C/C(=N\Nc1ccc([N+](=O)[O-])cc1)C(=O)N(C)Nc1ccccc1`, the TGI in the test with HOP-92 NSCLC, in the test with K-562 leukemia, in the test on RPMI-8226 leukemia, in the test on SK-OV-3 ovarian, with SN12C renal and in the test with UO-31 renal was more than 100 µM each time.

For the compound `COc1cc(C2C(C(=O)Nc3ccccc3)=C(C)NC(C)=C2C(=O)Nc2ccccc2)ccc1O`, the TGI was more than 100 µM with HCT-116 colon; 88.5 µM in the test on HOP-92 NSCLC; more than 100 µM in the test with K-562 leukemia; more than 100 µM in the test on MALME-3M melanoma; more than 100 µM in the test with RPMI-8226 leukemia; more than 100 µM in the test on SN12C renal. In the test on UO-31 renal, this compound registered a TGI of more than 100 µM.

`O=C1C2=C(c3ccccc31)C(c1ccccc1Cl)N1C(=O)CSC1=N2` (stereo not drawn): the TGI in the test on HCT-116 colon, in the test with HOP-92 NSCLC, in the test with K-562 leukemia, with MALME-3M melanoma, in the test on RPMI-8226 leukemia and with SK-MEL-5 melanoma was more than 100 µM each time. Moreover, the TGI in the test on SK-OV-3 ovarian, in the test with SN12C renal and in the test with UO-31 renal was more than 100 µM throughout.

Consider `Cc1ccc(NC(=O)C(=O)Cc2nc3ccccc3o2)c(C)c1`, for which the TGI in the test on HCT-116 colon, in the test with HOP-92 NSCLC, in the test on K-562 leukemia, with MALME-3M melanoma, with RPMI-8226 leukemia and in the test on SK-OV-3 ovarian was more than 100 µM throughout. Moreover, the TGI in the test with SN12C renal and in the test with UO-31 renal was more than 100 µM in each case.

`O=c1nc2cc(-c3ccccc3)[nH]c2nn1-c1c(Cl)cc(Cl)cc1Cl`: the TGI in the test on HCT-116 colon is 40.1 µM; in the test on HOP-92 NSCLC it was 64 µM; in the test with K-562 leukemia it was more than 100 µM; with MALME-3M melanoma it was 65.7 µM; in the test with RPMI-8226 leukemia, 61.1 µM; in the test with SK-MEL-5 melanoma, 56.4 µM. In addition, the TGI stood at 92.4 µM with SK-OV-3 ovarian, 83.7 µM in the test on SN12C renal and 47 µM in the test on UO-31 renal.

Consider `C[Si](C)(C)/C=C/CN1C(=O)CCC1O` (stereo not drawn), for which the TGI in the test with HCT-116 colon, in the test with HOP-92 NSCLC, in the test with K-562 leukemia, with MALME-3M melanoma, in the test on RPMI-8226 leukemia and in the test on SK-MEL-5 melanoma was more than 100 µM throughout. The TGI with SK-OV-3 ovarian, in the test on SN12C renal and in the test on UO-31 renal was more than 100 µM each time.

Take `O=c1c([Se]c2coc3ccccc3c2=O)coc2ccccc12`: the TGI in the test on HCT-116 colon is 12.3 µM; in the test on HOP-92 NSCLC, 31.7 µM; with K-562 leukemia, more than 100 µM; in the test on MALME-3M melanoma, 31.8 µM; with RPMI-8226 leukemia, 56.3 µM; with SK-MEL-5 melanoma it was 29.9 µM. The figures for the TGI with SK-OV-3 ovarian, with SN12C renal and in the test with UO-31 renal were 29.8 µM, 28.2 µM and 26.3 µM, respectively.

Regarding `COC(=O)C1=C(C(=O)OC)C2(C(=O)OC)OC1(OC)C(C1(C(=O)OC)C(C(=O)OC)=C1C(=O)OC)=C2C(=O)OC` (stereo not drawn), the TGI with HCT-116 colon, with HOP-92 NSCLC, with K-562 leukemia, in the test on MALME-3M melanoma, in the test with RPMI-8226 leukemia and in the test on SK-MEL-5 melanoma was more than 100 µM in each case. In addition, the TGI with SK-OV-3 ovarian, in the test with SN12C renal and with UO-31 renal was more than 100 µM each time.

For `CC[C@@H]1OC2(C)CC(S(=O)(=O)c3ccccc3)CC1O2` (stereo partly drawn), the TGI with HCT-116 colon, in the test with HOP-92 NSCLC, in the test with K-562 leukemia, in the test with MALME-3M melanoma, with RPMI-8226 leukemia and in the test on SK-MEL-5 melanoma was more than 100 µM in each case. The TGI in the test on SK-OV-3 ovarian, in the test with SN12C renal and with UO-31 renal was more than 100 µM each time.

For `COc1ccc(O)c2c1C(=O)CCCC2=O`, the TGI with HCT-116 colon, in the test on K-562 leukemia, in the test on MALME-3M melanoma, in the test on RPMI-8226 leukemia, with SK-MEL-5 melanoma and with SK-OV-3 ovarian was more than 100 µM each time. The TGI in the test on SN12C renal and in the test on UO-31 renal was more than 100 µM each time.

For `CCc1cccc(C)c1NC(=O)NS(=O)(=O)c1ccc(C)cc1`, the TGI with HCT-116 colon, in the test on HOP-92 NSCLC, with K-562 leukemia, in the test with MALME-3M melanoma, with RPMI-8226 leukemia and in the test on SK-MEL-5 melanoma was more than 100 µM throughout. For the same compound, the TGI with SK-OV-3 ovarian, with SN12C renal and with UO-31 renal was more than 100 µM throughout.

Turning to `Fc1ccccc1C1CC(C(c2ccccc2)c2ccccc2)=Nc2ccccc2S1` (stereo not drawn), the TGI in the test with K-562 leukemia stood at 10.6 µM; in the test on MALME-3M melanoma, 29.5 µM; with RPMI-8226 leukemia it was 25 µM; in the test with SK-MEL-5 melanoma, 24.9 µM; with SK-OV-3 ovarian, 68.6 µM; with SN12C renal, 26 µM. The compound also yielded a TGI in the test with UO-31 renal of 28.8 µM.

On to `COc1cccc(C2C(C(=O)Nc3cc(=O)n(C)c(=O)n3C)=C(C)NC(C)=C2C(=O)Nc2cc(=O)n(C)c(=O)n2C)c1O`, for which the TGI with HOP-92 NSCLC, in the test on K-562 leukemia, in the test on MALME-3M melanoma, with RPMI-8226 leukemia, with SK-MEL-5 melanoma and with SK-OV-3 ovarian was more than 100 µM each time. Further, the TGI in the test with SN12C renal and in the test on UO-31 renal was more than 100 µM throughout.

For `Cc1nc(C(N)=S)sc1C(=O)/C=C/c1cccc(O)c1`, the TGI in the test on HOP-92 NSCLC was more than 100 µM; in the test with K-562 leukemia, 78.3 µM; with MALME-3M melanoma, more than 100 µM; in the test on RPMI-8226 leukemia, more than 100 µM; in the test with SK-MEL-5 melanoma, more than 100 µM; in the test on SK-OV-3 ovarian, more than 100 µM. Further, the TGI in the test with SN12C renal and with UO-31 renal was more than 100 µM each time.

Turning to `COc1ccccc1/C=C\c1cc(OC)c(OC)c(OC)c1`, the TGI in the test with HCT-116 colon was more than 100 µM; in the test with HOP-92 NSCLC, 81.6 µM; with K-562 leukemia, more than 100 µM; in the test with MALME-3M melanoma it was more than 100 µM; in the test with RPMI-8226 leukemia, 43.7 µM; in the test with SK-MEL-5 melanoma it was 13.5 µM. Further, the TGI in the test on SN12C renal is more than 100 µM; in the test on UO-31 renal it was 60.4 µM.

As to `O=c1cccccc1NCCCCNc1cccccc1=O`, the TGI in the test with HCT-116 colon is more than 100 µM; in the test with K-562 leukemia it was more than 100 µM; in the test on MALME-3M melanoma, more than 100 µM; with RPMI-8226 leukemia, more than 100 µM; in the test with SK-MEL-5 melanoma, 96.8 µM; with SK-OV-3 ovarian, more than 100 µM. The TGI in the test with SN12C renal and in the test on UO-31 renal was more than 100 µM in each case.

Turning to `CCOC(=O)C(C)(C)Oc1ccc2c(-c3ccc(Cl)cc3)cc(=O)oc2c1`, the TGI with HCT-116 colon, in the test with K-562 leukemia, in the test on MALME-3M melanoma, in the test on RPMI-8226 leukemia, with SK-MEL-5 melanoma and in the test with SN12C renal was more than 100 µM in each case. The TGI in the test with UO-31 renal is more than 100 µM.

As to `COc1cc2c(cc1C)n(O)c(C)c(C(=O)C/C(=N/NC(=O)C[N+](C)(C)C)C(=O)Nc1cccc(Cl)c1C)[n+]2=O`, the TGI in the test on HCT-116 colon, in the test on HOP-92 NSCLC, with K-562 leukemia, in the test with MALME-3M melanoma, in the test on RPMI-8226 leukemia and with SK-MEL-5 melanoma was more than 100 µM in each case. Further, the TGI in the test with SN12C renal and in the test with UO-31 renal was more than 100 µM in each case.
